Patent US20150065440A1 (Progen Pharmaceuticals Limited, priority 2007, published 2015)

Columns and labels:
HSV-1 [1] = test: Anti-HSV screening assay (viral plaques), HSV-1; assay type: cell-based; conditions: 100 μg/mL, viral plaques relative to mock treated controls
Method: (§1) African green monkey kidney (GMK AH1) cells^46 were cultured in Eagle's minimum essential medium (EMEM) supplemented with 2% calf serum, 0.05% Primaton RL substance (Kraft Inc., Norwich, USA) and antibiotics. Human epidermoid carcinoma (HEp-2) cells were cultured in Dulbecco's modified EMEM (DMEM) supplemented with 10% fetal calf serum and antibiotics. […] The RSV strain A-2^50 was used. The RSV stock was prepared as described by Hallak et al.^51 and stored at −70° C. in the presence of 40% sucrose^52.
(§2) The viral infectivity (the plaque number-reduction) assay and the plaque size-reduction assay were carried out as described previously^17. […] Subsequently, the cells were washed with 2 mL of EMEM and overlaid with 1% methylcellulose solution in EMEM. The plaques were visualized by staining with crystal violet solution after 2 (HSV-2) or 3 (HSV-1) days of incubation at 37° C. […] When the compounds were screened for anti-HSV or anti-RSV activity, mixtures of 200 PFU of the virus and the test compound (100 μg/mL) in serum-free EMEM were incubated for 10 min at room temperature before addition to cells and during the entire period of viral infection of cells and the development of viral plaques. In the plaque size-reduction assay, the compounds were added to cells (in methylcellulose overlay medium) after 2 h period of virus infection of cells in the absence of the inhibitor. After 2-3 days of incubation at 37° C., the viral plaques were visualized by staining the cells with 1% solution of crystal violet. For each compound tested, the images of twenty neighboring plaques were captured using a Leica DC300 digital camera attached to a Leitz-Wetzlar Diavert microscope. The area of each plaque was determined using IM500 image software (Leica). Similar protocols were used for RSV, except that the assays were performed in HEp-2 cells and DMEM supplemented with 2% heat-inactivated fetal calf serum was used instead of EMEM.

VEGF = biological target: T1, VEGF (Homo sapiens, UniProt P15692); test: Growth factor binding assay (SPR solution affinity), VEGF; conditions: HBS-EP buffer, 25° C.
T1 sequence (P15692 207-395): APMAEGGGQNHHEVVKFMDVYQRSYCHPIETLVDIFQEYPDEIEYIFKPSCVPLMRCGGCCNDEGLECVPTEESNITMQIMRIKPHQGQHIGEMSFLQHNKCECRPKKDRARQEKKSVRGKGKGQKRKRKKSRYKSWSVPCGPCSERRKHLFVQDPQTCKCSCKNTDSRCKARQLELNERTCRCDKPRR
Method in brief: (§3)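 Kd measured by SPR solution affinity: fixed growth factor with varying ligand competing for heparin-coated sensorchip, 25 °C. Buffer HBS-EP pH 7.4 (150 mM NaCl) for FGF-1 and VEGF; FGF-2 with 0.3 M NaCl. Duplicate values averaged.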

GMK AH1 cells = test: Cytotoxicity assay, GMK AH1; assay type: cell-based, African green monkey; conditions: cell viability reduced by 50%
Method: The assay was performed in GMK AH1 cells that had been seeded in 96 well cluster plates and reached approximately 80-90% confluence at day 2 of culture. The cells were washed with EMEM and incubated for 24 h at 37° C. with 100 μL of serial two-fold dilutions of the test compound in serum-free EMEM. The effect of the test compound on cell viability was measured by using the tetrazolium-based CellTiter96 assay according to the manufacturer's protocol (Promega, Madison, Wis., USA).

FGF-1 = FGF-1 (Homo sapiens, UniProt P05230); test: Growth factor binding assay (SPR solution affinity), FGF-1; conditions: SPR, HBS-EP buffer, 25° C.; read-out: Kd FGF-1
FGF-1, sequence (P05230 whole entry, species assumed): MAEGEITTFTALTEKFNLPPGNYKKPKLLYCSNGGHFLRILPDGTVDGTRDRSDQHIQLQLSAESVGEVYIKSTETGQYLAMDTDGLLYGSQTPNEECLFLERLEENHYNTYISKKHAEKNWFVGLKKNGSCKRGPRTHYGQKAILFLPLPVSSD

RSV = test: Anti-RSV screening assay (viral plaques); assay type: cell-based; conditions: 100 μg/mL, viral plaques relative to mock treated controls
Method: as §1, §2

HSV-2 [2] = test: Viral plaque number-reduction assay, HSV-2; conditions: GMK AH1 cells
Method: as §1, §2

HSV-2 [3] = test: Anti-HSV screening assay (viral plaques), HSV-2; assay type: cell-based; conditions: 100 μg/mL, viral plaques relative to mock treated controls
Method: as §1, §2

HSV-1 [4] = test: Viral plaque number-reduction assay, HSV-1; conditions: GMK AH1 cells
Method: as §1, §2

FGF-2 = FGF-2 (Homo sapiens, UniProt P09038); test: Growth factor binding assay (SPR solution affinity), FGF-2; conditions: SPR, HBS-EP buffer containing 0.3 M NaCl, 25° C.; read-out: Kd FGF-2
FGF-2, sequence (P09038 143-288, species assumed): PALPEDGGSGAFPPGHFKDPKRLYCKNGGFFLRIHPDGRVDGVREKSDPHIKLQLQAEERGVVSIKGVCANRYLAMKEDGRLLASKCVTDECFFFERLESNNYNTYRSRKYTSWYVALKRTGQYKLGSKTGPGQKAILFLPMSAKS
Method in brief: as §3

[5] = biological target: T2, recombinant human heparanase (Homo sapiens, UniProt Q9Y251); test: Heparanase inhibition assay (fondaparinux cleavage, WST-1); conditions: read-out: Ki Heparanase; IC50 converted into Ki; fondaparinux 100 μM, pH 5.0
T2 sequence (Q9Y251 158-543 limits assumed): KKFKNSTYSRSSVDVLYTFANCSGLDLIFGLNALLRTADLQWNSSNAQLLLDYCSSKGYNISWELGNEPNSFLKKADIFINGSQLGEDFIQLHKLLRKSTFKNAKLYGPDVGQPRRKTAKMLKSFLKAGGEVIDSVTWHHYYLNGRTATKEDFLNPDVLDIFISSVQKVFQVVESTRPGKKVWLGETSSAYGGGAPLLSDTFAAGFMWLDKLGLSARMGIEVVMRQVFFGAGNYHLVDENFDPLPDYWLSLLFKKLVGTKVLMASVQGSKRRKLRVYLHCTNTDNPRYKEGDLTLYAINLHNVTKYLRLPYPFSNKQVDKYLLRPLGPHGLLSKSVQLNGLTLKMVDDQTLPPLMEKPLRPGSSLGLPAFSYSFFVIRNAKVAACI
T2 sequence (Q9Y251 36-109 limits assumed): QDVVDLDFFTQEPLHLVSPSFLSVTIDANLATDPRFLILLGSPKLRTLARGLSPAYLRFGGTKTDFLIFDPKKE

For `O=S(=O)(O)OCC1OC(OC2C(OCCCCCCCCCCCCn3cc(-c4cccc5ccccc45)nn3)OC(COS(=O)(=O)O)C(OS(=O)(=O)O)C2OS(=O)(=O)O)C(OS(=O)(=O)O)C(OC2OC(COS(=O)(=O)O)C(OS(=O)(=O)O)C(OC3OC(COS(=O)(=O)O)C(OS(=O)(=O)O)C(OC4OC(COS(=O)(=O)O)C(OS(=O)(=O)O)C(OS(=O)(=O)O)C4OS(=O)(=O)O)C3OS(=O)(=O)O)C2OS(=O)(=O)O)C1OS(=O)(=O)O` [Compound 11, 12-(4-Naphthalen-1-yl-[1,2,3]triazol-1-yl)dodecyl 2,3,4,6-tetra-O-sodium sulfonato-α-D-mannopyranosyl-(1→3)-2,4,6-tri-O-sodium sulfonato-α-D-mannopyranosyl-(1→3)-2,4,6-tri-O-sodium sulfonato-α-D-mannopyranosyl-(1→3)-2,4,6-tri-O-sodium sulfonato-α-D-mannopyranosyl-(1→2)-3,4,6-tri-O-sodium sulfonato-α-D-mannopyranoside], the “Residual infectivity (%) HSV-1” value (HSV-1 [1]) was 0%, the Kd (VEGF) was 0.79 ± 0.24 nM and the “Cytotoxicity CC50 GMK AH1” value (GMK AH1 cells) was >400 µg/mL. For the same compound, the Kd (FGF-1) was 0.19 ± 0.1 nM, the “Residual infectivity (%) RSV” value (RSV) was 0% and the “Selective index CC50/IC50 HSV-2” value (HSV-2 [2]) was > 444. For the same compound, the “Residual infectivity (%) HSV-2” value (HSV-2 [3]) was 0%, the “Selective index CC50/IC50 HSV-1” value (HSV-1 [4]) was > 222 and the Kd (FGF-2) was 73 ± 23 nM. For the same compound, the Ki [5] was 4.8 ± 1.8 nM.
`O=S(=O)(O)OCC1OC(OC2C(OCCCCCCCCCCCCn3cc(-c4ccccc4)nn3)OC(COS(=O)(=O)O)C(OS(=O)(=O)O)C2OS(=O)(=O)O)C(OS(=O)(=O)O)C(OC2OC(COS(=O)(=O)O)C(OS(=O)(=O)O)C(OC3OC(COS(=O)(=O)O)C(OS(=O)(=O)O)C(OC4OC(COS(=O)(=O)O)C(OS(=O)(=O)O)C(OS(=O)(=O)O)C4OS(=O)(=O)O)C3OS(=O)(=O)O)C2OS(=O)(=O)O)C1OS(=O)(=O)O` [Compound 8, 12-(4-Phenyl-[1,2,3]triazol-1-yl)dodecyl 2,3,4,6-tetra-O-sodium sulfonato-α-D-mannopyranosyl-(1→3)-2,4,6-tri-O-sodium sulfonato-α-D-mannopyranosyl-(1→3)-2,4,6-tri-O-sodium sulfonato-α-D-mannopyranosyl-(1→3)-2,4,6-tri-O-sodium sulfonato-α-D-mannopyranosyl-(1→2)-3,4,6-tri-O-sodium sulfonato-α-D-mannopyranoside] was tested, and the “Residual infectivity (%) HSV-1” value (HSV-1 [1]) was 7%, the Kd (VEGF) was 5.1 ± 1.8 nM and the Kd (FGF-1) was 2.3 ± 1.3 nM. The “Residual infectivity (%) RSV” value (RSV) was 3%, the “Residual infectivity (%) HSV-2” value (HSV-2 [3]) was 0.2% and the Kd (FGF-2) was 253 ± 25 nM. It also gave a Ki [5] of 3.5 ± 0.4 nM.
